Data published in patent US6541511B1, “Methyl analogs of simvastatin as novel HMG-CoA reductase inhibitors” (Ranbaxy Laboratories Limited, priority 2001, dated 2003).

How the values were obtained:
HMG-CoA reductase [1] = biological target: T1, HMG-CoA reductase (Homo sapiens, UniProt P04035); assay: in vitro HMG-CoA reductase inhibitory activity; type: biochemical
T1 sequence (P04035 1-888): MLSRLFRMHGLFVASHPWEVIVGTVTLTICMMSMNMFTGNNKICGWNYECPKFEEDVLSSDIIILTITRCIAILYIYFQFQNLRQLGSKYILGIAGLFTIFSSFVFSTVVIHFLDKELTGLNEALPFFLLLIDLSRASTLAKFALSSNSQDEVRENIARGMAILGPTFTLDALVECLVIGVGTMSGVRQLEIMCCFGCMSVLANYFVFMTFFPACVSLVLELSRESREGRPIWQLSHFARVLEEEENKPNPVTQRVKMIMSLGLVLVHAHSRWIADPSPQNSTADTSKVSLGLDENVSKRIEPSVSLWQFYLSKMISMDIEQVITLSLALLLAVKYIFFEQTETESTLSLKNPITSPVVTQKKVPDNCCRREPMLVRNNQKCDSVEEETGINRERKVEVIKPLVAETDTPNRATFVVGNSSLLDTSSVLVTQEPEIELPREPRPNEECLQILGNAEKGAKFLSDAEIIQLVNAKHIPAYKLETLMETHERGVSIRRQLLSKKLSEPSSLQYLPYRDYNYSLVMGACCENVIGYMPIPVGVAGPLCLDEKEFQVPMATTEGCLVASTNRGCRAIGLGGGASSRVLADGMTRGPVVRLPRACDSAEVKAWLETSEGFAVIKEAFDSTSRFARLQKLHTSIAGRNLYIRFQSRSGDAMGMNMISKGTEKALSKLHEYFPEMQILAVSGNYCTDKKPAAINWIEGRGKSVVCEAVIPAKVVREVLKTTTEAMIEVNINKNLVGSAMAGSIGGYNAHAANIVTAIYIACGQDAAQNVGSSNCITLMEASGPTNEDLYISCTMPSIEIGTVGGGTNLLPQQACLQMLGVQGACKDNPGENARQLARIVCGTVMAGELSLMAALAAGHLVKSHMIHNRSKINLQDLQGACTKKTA
Experimental: The in vivo and in vitro biological activity of the methyl analog of simvastatin isomeric compounds of structural formulae VIIc and VIIa was carried out on a HMG-CoA reductase inhibitory model. The compounds were tested at three concentrations (10^−5, 10^−7 and 10^−9 M) for the in vitro activity.

[2] = tested on: (14C) cholesterol synthesis from (14C) acetate; assay: in vivo inhibition of (14C) cholesterol prepared from 14C acetate in rats; conditions: for cholesterol lowering activity (in words): in vivo
Experimental: The in vivo experiments were conducted using radiolabelled (^14C) acetate which was administered to the rats converting it into (^14C) cholesterol. This synthesis was measured by quantitating (^14C) cholesterol inhibited by HMG-CoA reductase inhibitor.

HMG-CoA reductase [3] = biological target: T1, HMG-CoA reductase; conditions: cited from earlier work

CCC(C)(C)C(=O)O[C@H]1C[C@@H](C)C=C2C=C[C@H](C)[C@H](CC[C@@H]3C[C@@H](O)[C@@H](C)C(=O)O3)[C@H]21 [VIIa, 6(R)-[2-[8(S)-[[2,2-Dimethylbutanoyl]oxyl]-2(S),6(R)-dimethyl-1,2,6,7,8,8a(R)-hexahydro-1(S)-napthyl]ethyl]-3(R)-methyl,4(R)-hydroxy-3,4,5,6-tetrahydro-2H-pyran-2-one]
% HMG-CoA reductase inhibition activity (HMG-CoA reductase [1]; concentration 10^-5 M): 100% | % HMG-CoA reductase inhibition activity (HMG-CoA reductase [1]; concentration 10^-7 M): 93% | % HMG-CoA reductase inhibition activity (HMG-CoA reductase [1]; concentration 10^-9 M): 30% | % inhibition of (14C) cholesterol prepared from 14C acetate ([2]; 1 mg/kg i.p.): 10% | % inhibition of (14C) cholesterol prepared from 14C acetate ([2]; 1 mg/kg orally): 0% | % inhibition of (14C) cholesterol prepared from 14C acetate ([2]; 5 mg/kg orally): 69% | cholesterol lowering activity (in words) [2]: have cholesterol lowering activity

CCC(C)(C)C(=O)O[C@H]1C[C@@H](C)C=C2C=C[C@H](C)[C@H](CC[C@@H]3C[C@@H](O)[C@H](C)C(=O)O3)[C@H]21 [VIIc, 6(R)-[2-[8(S)-[[2,2-Dimethylbutanoyl]oxyl]-2(S),6(R)-dimethyl-1,2,6,7,8,8a(R)-hexahydro-1(S)-napthyl]ethyl]-3(S)-methyl,4(R)-hydroxy-3,4,5,6-tetrahydro-2H-pyran-2-one]
% HMG-CoA reductase inhibition activity (HMG-CoA reductase [1]; concentration 10^-5 M): 99% | % HMG-CoA reductase inhibition activity (HMG-CoA reductase [1]; concentration 10^-7 M): 71% | % HMG-CoA reductase inhibition activity (HMG-CoA reductase [1]; concentration 10^-9 M): 8% | HMG-CoA reductase inhibitory activity (in words) (HMG-CoA reductase [1]; tested at 10^-5, 10^-7 and 10^-9 M): significant HMG-CoA reductase inhibitory activity | % inhibition of (14C) cholesterol prepared from 14C acetate ([2]; 1 mg/kg i.p.): 8% | % inhibition of (14C) cholesterol prepared from 14C acetate ([2]; 1 mg/kg orally): 0% | % inhibition of (14C) cholesterol prepared from 14C acetate ([2]; 5 mg/kg orally): 57% | cholesterol lowering activity (in words) [2]: have cholesterol lowering activity

CCC(C)(C)C(=O)O[C@H]1C[C@@H](C)C=C2C=C[C@H](C)[C@H](CC[C@@H]3C[C@@H](O)CC(=O)O3)[C@H]21 [simvastatin]
potency relative to mevinolin (HMG-CoA reductase [3]): twice as potent as mevinolin
